According to article PMC7663616, “(5-Hydroxy-4-oxo-2-styryl-4H-pyridin-1-yl)-acetic Acid Derivatives as Multifunctional Aldose Reductase Inhibitors” (Molecules, 2020):
“And” between values parts separate entries of the source, which are not always exact repeats. Equal entries are not always repeated. Where two headings read alike, the source gives them in different places.

Experiments:
[1] = biological target: T1, human recombinant ALR1 (Homo sapiens, UniProt P14550); experiment: ALR1 enzyme inhibition assay (NADPH oxidation, sodium D-gluconate substrate); type: biochemical; conditions: for inhibition at 100 µM: read-out: ALR1 Inh. %; for SI: selectivity index, defined as IC50[ALR1]: IC50[ALR2]
T1 sequence (P14550 1-325): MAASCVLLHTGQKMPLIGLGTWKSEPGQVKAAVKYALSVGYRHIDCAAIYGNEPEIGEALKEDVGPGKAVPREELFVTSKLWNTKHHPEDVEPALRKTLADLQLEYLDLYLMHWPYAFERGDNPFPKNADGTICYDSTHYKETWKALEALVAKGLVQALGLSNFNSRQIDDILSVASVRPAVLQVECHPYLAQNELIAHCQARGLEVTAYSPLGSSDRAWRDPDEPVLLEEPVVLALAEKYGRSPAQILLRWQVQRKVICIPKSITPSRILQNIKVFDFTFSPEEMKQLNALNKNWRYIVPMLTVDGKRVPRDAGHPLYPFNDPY
Description: (§1) All the title compounds were tested for their inhibitory activity against human recombinant ALR2.
The ALR2 inhibition activity was evaluated in a mixture of reaction with 50 μL NADPH (0.1 mM), 50 μL sodium phosphate buffer (pH = 6.2, 100 mM), 50 μL human recombinant ALR2, 1 μL dimethyl sulfoxide (DMSO) as solvent, and 50 μL D,L-glyceraldehyde (10 mM) which served as a substrate. […] Before the substrate was added, the mixture was incubated at 30 °C for 3 min, then the reaction was started when the substrate was added, and was monitored for 4 min. The ALR1 inhibition activity experiment was conducted at 37 °C in the mixture containing 50 μL NADPH (0.12 mM), 50 μL human recombinant ALR1, 50 μL sodium phosphate buffer (pH = 7.2, 100 mM), 50 μL sodium […] (20 mM) as a substrate, and 1 μL DMSO as solvent. Before the substrate sodium […] was added, the mixture was incubated at 37 °C for 3 min, then the substrate was added to start the reaction, which was monitored for 4 min.
(§2) The inhibitory activities of the title synthetic compounds against ALR2 and ALR1 were examined by adding 1 μL of the inhibitor solution to the ALR2 or ALR1 mixtures. All compounds were dissolved in DMSO, and the solutions were diluted with DMSO to desirable concentrations. To correct for the nonenzymatic oxidation of NADPH, the rate of NADPH oxidation in the presence of all of the reaction mixture components except the substrate was subtracted from each experimental rate. The title compounds were tested at concentrations ranging from 100 μM to 1 μM, except compound 7l which were tested 10 μM to 0.1 μM. […] The inhibitory rates of tested compounds were calculated by equation as follows:Inhibitory rate (%) = (1 − ∆Asample/∆AE+DMSO) × 100%(1) sample = enzyme + compound + DMSO(2) E + DMSO = enzyme + DMSO(3)
(§3) The experiments were performed in triplicate.

[2] = biological target: human recombinant ALR2 (Homo sapiens, UniProt P15121); experiment: ALR2 enzyme inhibition assay (NADPH oxidation, D,L-glyceraldehyde substrate); type: biochemical
Description: as §1
The ALR2 inhibition activity was evaluated in a mixture of reaction with 50 μL NADPH (0.1 mM), 50 μL sodium phosphate buffer (pH = 6.2, 100 mM), 50 μL human recombinant ALR2, 1 μL dimethyl sulfoxide (DMSO) as solvent, and 50 μL D,L-glyceraldehyde (10 mM) which served as a substrate. […] Before the substrate was added, the mixture was incubated at 30 °C for 3 min, then the reaction was started when the substrate was added, and was monitored for 4 min.
as §2, with “rate.” for “rate. The title compounds were tested at concentrations ranging from 100 μM to 1 μM, except compound 7l which were tested 10 μM to 0.1 μM.”
as §3

[3] = system: lipid peroxidation in rat brain homogenate; experiment: Lipid peroxidation suppression (TBARS/MDA) in rat brain homogenate induced by Fe(III)/ascorbic acid; type: biochemical; conditions: tested in concentration of 100 μM, n = 3
Excerpt: Lipid peroxidation reactions involve free radical attacks on unsaturated fatty acid, producing free radicals and lipid peroxides which eventually harm the organism and usually decompose to form poisonous malonaldehyde (MDA). Thiobarbituric acid reactive substances (TBARS), which generated from the condensation of thiobarbituric acid and malondialdehyde, are considered as key biomarkers to determine the level of lipid peroxidation. For further identification that the derivatives tested in DPPH scavenging assay can be effective in heterogeneous oxidative pathway, the suppression effect of compounds on the hydroxyl radical-dependent lipoperoxidation in rat brain homogenate oxidant system which induced by Fe(III)/ascorbic acid was also evaluated.
Compounds 7a, 7c, 7g and 7k–l that were already described in the DPPH radical scavenging activity were investigated in the suppression of lipid peroxidation (Table 3).
(§4) Antioxidant assays were performed with the similar protocol as described previously.

[4] = DPPH radical scavenging assay; conditions: n = 3
Description: In this part, the antioxidant activity was measured by an intrinsic chemical reactivity toward radicals, in a homogeneous reaction system of the methanol solution of 1,1-diphenyl-2-trinitrophenylhydrazine (DPPH) (0.2 mM), and 6-hydroxy-2,5,7,8-tetramethyl- chroman-2-carboxylic acid (Trolox) served as a reference compound.
as §4

[5] = parameters: method as in Lewis F. W. et al [36]; conditions: 100 μM column; ref Lewis F. W. et al [36]; cited from earlier work
[6] = system: lipid peroxidation in rat brain homogenate; parameters: method as in Chaves S. et al. [37]; conditions: ref Chaves S. et al. [37]; cited from earlier work
[7] = tested in concentration of 100 μM, n = 3
[8] = n = 3, mean ± SD, read-out: IC50 for ALR2
[9] = raw data, average of three replicates, unit not given (molar scale), read-out: IC50 average (ALR2)
[10] = raw data, single replicate, unit not given (molar scale by log(dose)), read-out: IC50 (ALR2)

SMILES	IC50 ([1]; n = 3) [µM]	inhibition at 100 µM [1, 7] [%]	IC50 [2, 8] [µM]	IC50 [2, 9] [µM]	IC50 [2, 10]	MDA inh. % [3] [%]	% of Inhibition of Control Value (DPPH) ([4]; 100 μM) [%]	further results
CC(C)(C)c1ccc(C=Cc2cc(=O)c(O)cn2CC(=O)O)cc1 [7c, {2-[2-(4-tert-Butyl-phenyl)-vinyl]-5-hydroxy-4-oxo-4H-pyridin-1-yl}-acetic acid]	> 100	49.41 ± 0.45	2.98 ± 0.73	2.98	2.06 µM and 3.03 µM and 3.84 µM	26.10 ± 1.06	25.44 ± 2.36	–
COc1ccc(C=Cc2cc(=O)c(O)cn2CC(=O)O)cc1 [7d, {5-Hydroxy-2-[2-(4-methoxy-phenyl)-vinyl]-4-oxo-4H-pyridin-1-yl}-acetic acid]	–	–	6.78 ± 0.91	6.78	5.7 µM and 7.92 µM and 6.7 µM	–	–	I% (ALR2 inhibitory rate) ([2]; raw data, single replicate, log(dose) -5): 54.7%
COc1ccc(C=Cc2cc(=O)c(O)cn2CC(=O)O)cc1OC [7e, {2-[2-(3,4-Dimethoxy-phenyl)-vinyl]-5-hydroxy-4-oxo-4H-pyridin-1-yl}-acetic acid]	–	–	9.56 ± 0.98	9.56	9.61 µM and 8.33 µM and 10.7 µM	–	–	–
O=C(O)Cn1cc(O)c(=O)cc1C=Cc1ccc(F)c(F)c1 [7g, {2-[2-(3,4-Difluoro-phenyl)-vinyl]-5-hydroxy-4-oxo-4H-pyridin-1-yl}-acetic acid]	> 100	35.8 ± 3.23	2.11 ± 0.34	2.11	2.52 µM and 2.11 µM and 1.7 µM	55.02 ± 3.00	28.50 ± 0.95	–
O=C(O)Cn1cc(O)c(=O)cc1C=Cc1ccc(C(F)(F)F)cc1 [7h, {5-Hydroxy-4-oxo-2-[2-(4-trifluoromethyl-phenyl)-vinyl]-4H-pyridin-1-yl}-acetic acid]	–	–	10.7 ± 1.47	10.7	8.88 µM and 10.8 µM and 12.5 µM	–	–	–
CS(=O)(=O)c1ccc(C=Cc2cc(=O)c(O)cn2CC(=O)O)cc1 [7i, {5-Hydroxy-2-[2-(4-methanesulfonyl-phenyl)-vinyl]-4-oxo-4H-pyridin-1-yl}-acetic acid]	–	–	17.1 ± 2.3	17.1	16.1 µM and 20.3 µM and 15 µM	–	–	–
O=C(O)Cn1cc(O)c(=O)cc1C=Cc1ccc(O)c(O)c1 [7l, {2-[2-(3,4-Dihydroxy-phenyl)-vinyl]-5-hydroxy-4-oxo-4H-pyridin-1-yl}-acetic acid]	19.9 ± 1.72	80 ± 3.59	0.789 ± 0.183	0.789	0.916 µM and 0.921 µM and 0.53 µM	88.76 ± 2.04	97.96 ± 0.36	SI [1]: 25.23; % of Inhibition of Control Value (DPPH) ([4]; 1 μM): 41.48 ± 0.95%; % of Inhibition of Control Value (DPPH) ([4]; 5 μM): 67.18 ± 0.62%; % of Inhibition of Control Value (DPPH) ([4]; 10 μM): 82.44 ± 1.65%
Cc1c(O)c(=O)ccn1C [Deferiprone, 3-hydroxy-1,2-dimethyl-1H-pyridin-4-one]	–	–	–	–	–	–	–	% of Inhibition of Control Value (DPPH) [5]: 63%; MDA inh. % [6]: 25%
Cc1c(C)c2c(c(C)c1O)CCC(C)(C(=O)O)O2 (stereo not drawn) [Trolox, 6-hydroxy-2,5,7,8-tetramethyl-chroman-2-carboxylic acid, reference compound]	–	–	–	–	–	74.82 ± 1.82	92.32 ± 0.19	% of Inhibition of Control Value (DPPH) ([4]; 1 μM): 11.89 ± 1.39%; % of Inhibition of Control Value (DPPH) ([4]; 5 μM): 45.53 ± 1.12%; % of Inhibition of Control Value (DPPH) ([4]; 10 μM): 80.33 ± 1.22%
CC(/C=C1\SC(=S)N(CC(=O)O)C1=O)=C\c1ccccc1 [epalrestat, reference compound]	3.56 ± 0.18	–	–	–	–	–	–	inhibition at 100 µM [1]: 80.8 ± 3.74%

Second part, led by results:

IC50 ([1]; n = 3) [µM]	inhibition at 100 µM [1, 7] [%]	IC50 [2, 8] [µM]	IC50 [2, 9] [µM]	IC50 [2, 10]	SMILES	MDA inh. % [3] [%]	% of Inhibition of Control Value (DPPH) ([4]; 100 μM) [%]	further results
> 100	38.8 ± 1.75	8.41 ± 0.63	8.41	7.85 µM and 8.09 µM and 9.28 µM	O=C(O)Cn1cc(O)c(=O)cc1C=Cc1ccccc1 [7a, (5-Hydroxy-4-oxo-2-styryl-4H-pyridin-1-yl)-acetic acid]	19.28 ± 0.98	22.90 ± 3.30	melting point: 254 to 255 °C
–	–	5.3 ± 0.6	5.3	4.48 µM and 5.49 µM and 5.91 µM	Cc1ccc(C=Cc2cc(=O)c(O)cn2CC(=O)O)cc1 [7b, [5-Hydroxy-4-oxo-2-(2-p-tolyl-vinyl)-4H-pyridin-1-yl]-acetic acid]	–	–	melting point: 256 to 257 °C
–	–	6.64 ± 2.39	6.64	4.52 µM and 9.99 µM and 5.42 µM	O=C(O)Cn1cc(O)c(=O)cc1C=Cc1ccc(F)cc1 [7f, {2-[2-(4-Fluoro-phenyl)-vinyl]-5-hydroxy-4-oxo-4H-pyridin-1-yl}-acetic acid]	–	–	–
–	–	8.19 ± 0.43	8.19	8.07 µM and 7.74 µM and 8.76 µM	Nc1ccc(C=Cc2cc(=O)c(O)cn2CC(=O)O)cc1 [7j, {2-[2-(4-Amino-phenyl)-vinyl]-5-hydroxy-4-oxo-4H-pyridin-1-yl}-acetic acid]	–	–	–
15 ± 0.54	75.8 ± 2.34	2.36 ± 0.42	–	2.63 µM and 1.86 µM and 2.86 µM	O=C(O)Cn1cc(O)c(=O)cc1C=Cc1ccc(O)cc1 [7k, {5-Hydroxy-2-[2-(4-hydroxy-phenyl)-vinyl]-4-oxo-4H-pyridin-1-yl}-acetic acid]	90.73 ± 3.97	96.69 ± 0.72	SI [1]: 6.36; % of Inhibition of Control Value (DPPH) ([4]; 1 μM): 33.08 ± 0.72%; % of Inhibition of Control Value (DPPH) ([4]; 5 μM): 72.01 ± 1.80%; % of Inhibition of Control Value (DPPH) ([4]; 10 μM): 89.31 ± 0.62%
